# Measured values published in patent publication US20250051762A1, “PLATFORM USING DNA-ENCODED SMALL MOLECULE LIBRARIES AND RNA SELECTION TO DESIGN SMALL MOLECULES THAT TARGET RNA” (University of Florida Research Foundation, Incorporated, priority 2021, published 2025).
# Columns and labels:
# [1] = tested on: 3×3 ILL; test: 2DCS selection of microarray-immobilized compounds with 32P-labeled 3×3 ILL, Hit-StARTS analysis of RNA-seq; type: binding; conditions: Zobs >4
# Experimental: The interaction landscape for the ten representative DEL compounds emerging from the FACS screen were then defined by 2DCS (22). In 2DCS, small molecules are site-specifically conjugated to a microarray surface and then probed for binding to an RNA library under highly stringent conditions (FIGS. 2-B & S6). That is, the array is co-incubated with a radioactively labeled RNA library and an excess of competitor oligonucleotides that mimic regions common to all library members. […] To enable site-specific immobilization of compounds 1-10, a C-terminal alkyne handle was installed for CuAAC click (30) coupling to azide-displaying array surfaces. Installation of the alkyne was accomplished by coupling of bromoacetic acid onto rink amide resin followed by nucleophilic displacement with propargylamine prior to the synthesis of the SPDEL compounds (FIG. 2A).
# All ten compounds bound to the 3×3 ILL under the highly stringent conditions described above, almost all dose-dependently (FIG. 2B). The RNAs bound to each small molecule were harvested, reverse transcribed into DNA, and sequenced by RNA-seq. The resulting data set was statistically analyzed by using High Throughput Structure-Activity Relationships Through Sequencing (Hit-StARTS) (31) in which the relative frequency of each selected RNA is compared to the frequency of that RNA in the starting library (pooled population comparison). (31) The statistical significance of the enrichment of selected RNAs is quantified by Zobs, which correlates with affinity and selectivity. (31) Here, a cut-off of Zobs >4 was employed, which was empirically determined from measured affinities via evaluation of compound 9 binding with potential RNA motifs extracted from the 2DCS (FIGS. 2-B, 13, & 14). […] This cut-off afforded, on average, 60±40 (range: 6-155) preferred, or privileged, RNA 3D folds for each compound. Compound 6 bound to largest number of RNA targets (n=155) while compound 9 bound the fewest (n=6) (FIG. 14). […]
# [2] = tested on: fully paired RNA (loop mutated to a base pair); test: Binding affinity by MST, Cy5-labeled fully paired RNA
# Experimental: (§1) Binding affinity measurements: Binding affinities were measured by microscale thermophoresis (MST), performed on a Monolith NT.115 system (NanoTemper Technologies) with Cy5-labeled RNAs. These RNAs include: the 5′GAG/3′CCC SEQ ID NO: 16 loop at pri-miR-27a's Drosha site (Sequence:/5′-Cy5/rCrUrGrArGrGrUrGrArArArCrArUrCrCrCrArG SEQ ID NO: 17; Dharmacon), a related internal loop not selected by 9. 5′CAG/3′GCC SEQ ID NO: 17 loop (Sequence:/5′-Cy5/rCrUrCrArGrGrUrGrArArArCrArUrCrCrGrArG SEQ ID NO: 16; Dharmacon), and an RNA in which the loop is mutated to a base pair (Sequence:/5-Cy5/rCrUrGrArGrGrUrGrArArArCrArUrCrUrCrArG SEQ ID NO: 16; Dharmacon).
# (§2) Briefly, Cy5-labeled RNA (10 nM) was prepared in 1× Binding Buffer and folded by heating at 60° C. for 5 min and then slowly cooling to room temperature. After cooling, Tween-20 was added to a final concentration of 0.1% (v/v). Compound solutions were prepared separately in 20 μL of 1× Binding Buffer at a final concentration of 5 μM (1% (v/v) DMSO), followed by 1:1 serial dilutions in 1× Binding Buffer. RNA and compound solutions were then mixed 1:1 by volume to a total of 20 μL.
# (§3) Samples were incubated for 20 min at room temperature and then loaded into premium capillaries (NanoTemper Tech, Cat #MO-K025). The following parameters were used for MST measurements: 5-20% LED power (adjusted to keep fluorescence intensity between 2000 and 8000), 80% MST power, Laser-On time=30 s, Laser-Off time=25 s. The resulting data were analyzed by calculating the change in thermophoresis as a function of compound concentration and fitted by Equation 1, a one site binding model, in NanoTemper Tech's MST analysis software to yield the dissociation constant (Kd):
# (§4) Where F is the concentration of fluorescently labeled RNA; unbound and bound refer to the thermophoresis signal at completely unbound and bound state of RNA, respectively; c is the concentration of the compound; f (c) is the thermophoresis signal at compound concentration of c; and Kd is the dissociation constant.
# [3] = target: 5′GAG/3′CCC loop at pri-miR-27a's Drosha site; test: Binding affinity by microscale thermophoresis (MST), Cy5-labeled RNA; parameters: species or system human
# Experimental: as §1, §2, §3, §4
# [4] = tested on: 5′CAG/3′GCC loop; test: Binding affinity by MST, Cy5-labeled mutated loop RNA; parameters: species or system human; conditions: mutated loop 5′CAG/3′GCC
# Experimental: as §1
# Briefly, Cy5-labeled RNA (10 nM) was prepared in 1× Binding Buffer and folded by heating at 60° C. for 5 min and then slowly cooling to room temperature. […]
# as §3, with “(Kd): […]” for “(Kd):”
# [5] = tested on: pri-miR-27a; test: RT-qPCR of pri- and mature miR-27a in MDA-MB-231 TNBC cells; type: cell-based, human; conditions: MDA-MB-231, RT-qPCR
# Experimental: Cell lines. Compounds were tested in MDA-MB-231 TNBC cells (HTB-26, ATCC), LNCaP metastatic prostate cancer cells (gifted from Junli Luo lab), MCF-7 (HTB-22, ATCC) breast cancer cells, HeLa cervical adenocarcinoma cells (CCL-2, ATCC), and MCF-10a, a model of healthy breast epithelial cells (CRL-10317, ATCC).
# Cell culture and compound treatment. All cells were maintained at 37° C. with 5% CO2. MDA-MB-231 and LNCaP cells were cultured in RPMI 1640 medium with L-glutamine & 25 mM HEPES (Corning) supplemented with 10% (v/v) fetal bovine serum (FBS; Sigma) and 1× (v/v) Antibiotic-Antimycotic solution (Corning). MCF-7 and HeLa cells were cultured in DMEM medium with 4.5 g/L glucose (Corning), supplemented with 10% FBS, 1× (v/v) Glutagro (Corning), and 1× (v/v) Antibiotic-Antimycotic solution. MCF10a cells were cultured in DMEM/F12 50/50 with L-glutamine & 15 mM HEPES (Corning), supplemented with 10% FBS, 20 ng/mL human epidermal growth factor (Pepro Tech Inc.), […] hydrocortisone (Pfaltz & Bauer), 100 ng/mL cholera toxin (Sigma-Aldrich), 10 μg/mL insulin (Sigma-Aldrich), and 1× (v/v) Antibiotic-Antimycotic solution.
# MCF-10a cells were transfected with plasmids to express pri-miR-27a and mutant pri-miR-27a in 12- or 24-well plates with Lipofectamine 2000 per the manufacturer's protocol. For treatment of compounds, stocks were diluted in growth medium and added to cells for 48 h. The miRCURY miR-27a LNA inhibitor (QIAGEN, Cat #339121) was used as a positive control by diluting in growth medium to a final concentration of 1 nM. The miRCURY LNA Negative Control (QIAGEN, Cat #YI00199007-DDA) was used as a negative control, which has also diluted in growth medium to a final concentration of 1 nM.
# Analysis of mRNA abundance: Each cell line was grown as a monolayer in 12- or 24-well plates and treated as described in “Cell culture and compound treatment”. After 48 h, the cells were lysed, and total RNA was harvested using a Zymo Quick RNA Miniprep Kit per the manufacturer's protocol. To measure the abundance of mature miRNAs, approximately 250 ng of total RNA was reverse transcribed using the High Flex Buffer provided in a miScript II RT Kit (Qiagen) per the manufacturer's protocol (10 μL total reaction volume). For pri-miRNAs and mRNA, approximately 300 ng of total RNA was reverse transcribed using a qScript cDNA synthesis kit (10 μL total reaction volume, Quanta BioSciences). For all types of RNAs, 2 μL of the RT reaction was used for qPCR using SYBR Green Master Mix and a QuantStudio™ 5 Real-Time PCR System. Relative abundance of mature miRNAs was calculated by normalizing to RNU6, and relative abundance for pri-miRNAs and mRNAs was calculated by normalizing to 18S ribosomal RNA, using the […]. (12)
SMILES,number of RNA motifs bound that are unique to the compound [1],saturable binding [2],other results
C#CCN(CC(N)=O)C(=O)C(CC(C)C)N1CC[C@H](NC(=O)[C@@H]2C[C@@H](N)CN2C(=O)c2c[nH]c3ccc(Cl)cc23)C1=O (some centres unmarked) [Compound 4],2,–,–
C#CCN(CC(N)=O)C(=O)C(CC(C)C)N1CC[C@H](NC(=O)[C@@H]2C[C@H](N)CN2C(=O)c2c[nH]c3ccc(Cl)cc23)C1=O (some centres unmarked) [Compound 3],41,–,–
C#CCN(CC(N)=O)C(=O)C1CCN1C(=O)C1CC(N)CN1C(=O)c1ccccc1C(=O)N1CCOCC1 (centres unmarked) [Compound 5],–,Saturable binding was not observed,Kd [3]: 700 ± 100 nM
C#CCN(CC(N)=O)C(=O)C[C@H](Cc1c[nH]c2ccccc12)NC(=O)[C@@H]1C[C@@H](NC(=O)Cn2c(=O)[nH]c3ccccc3c2=O)CN1 [Compound 10],–,binds to none of the three RNAs,"binding [4]: binds to none of the three RNAs; binding [3]: binds to none of the three RNAs; inhibition of miR-27a (comparison of 5, 7, 9, 10) [5]: inactive"
